Test system: Meloidogyne incognita
Test: Meloidogyne incognita test (MELGIN), gall formation on lettuce roots in soil
Format: in vivo
Details: single active compound, 100% = no galls, 0% = galls as untreated control
Procedure: Meloidogyne incognita Test (MELGIN)
To produce a suitable preparation of active compound, 1 part by weight of active compound is mixed with the stated amounts of solvent and emulsifier, and the concentrate is diluted with water to the desired concentration.
Vessels are filled with soil, solution of active compound, Meloidogyne incognita egg/larvae suspension and lettuce seeds. The lettuce seeds germinate and plants develop. On the roots, galls are formed.
After the desired period of time, the nematicidal action is determined in % by the formation of galls. 100% means that no galls have been found; 0% means that the number of galls on the treated plants corresponds to that of the untreated control.

Row | Compound | Kill in % after 21 d (2 ppm) [%] | Kill in % after 21 d (0.125 ppm) [%]
1 | CN/C(=N\[N+](=O)[O-])NCc1cnc(Cl)s1 [Clothianidin] | 0 | 
2 | O=[N+]([O-])/N=C1\NCCN1Cc1ccc(Cl)nc1 [Imidacloprid] | 0 | 
3 | CNC(=O)O/N=C(\SC)C(=O)N(C)C [Oxamyl, oxamyl] |  | 24
